EC50 data for 40 compounds are collected here from patent USRE49735E1 (BRISTOL-MYERS SQUIBB COMPANY, priority 2010, dated 2023).

pEC50: −log10 of the molar value. Where “and” joins values, the source holds several entries; their conditions need not be identical. Identical values can stand only once.

The target in this assay is human mGluR5A (Homo sapiens, UniProt P41594). The experiment in a line: mGluR5 FLIPR Assay. The assay is classed as cell-based. Particulars: positive modulator activity; HEK293 (ZF) cells with human mGluR5A and rat GLAST; Ca++ response to ~EC10 glutamate.
human mGluR5A, sequence (P41594 21-1180 isoform P41594-2): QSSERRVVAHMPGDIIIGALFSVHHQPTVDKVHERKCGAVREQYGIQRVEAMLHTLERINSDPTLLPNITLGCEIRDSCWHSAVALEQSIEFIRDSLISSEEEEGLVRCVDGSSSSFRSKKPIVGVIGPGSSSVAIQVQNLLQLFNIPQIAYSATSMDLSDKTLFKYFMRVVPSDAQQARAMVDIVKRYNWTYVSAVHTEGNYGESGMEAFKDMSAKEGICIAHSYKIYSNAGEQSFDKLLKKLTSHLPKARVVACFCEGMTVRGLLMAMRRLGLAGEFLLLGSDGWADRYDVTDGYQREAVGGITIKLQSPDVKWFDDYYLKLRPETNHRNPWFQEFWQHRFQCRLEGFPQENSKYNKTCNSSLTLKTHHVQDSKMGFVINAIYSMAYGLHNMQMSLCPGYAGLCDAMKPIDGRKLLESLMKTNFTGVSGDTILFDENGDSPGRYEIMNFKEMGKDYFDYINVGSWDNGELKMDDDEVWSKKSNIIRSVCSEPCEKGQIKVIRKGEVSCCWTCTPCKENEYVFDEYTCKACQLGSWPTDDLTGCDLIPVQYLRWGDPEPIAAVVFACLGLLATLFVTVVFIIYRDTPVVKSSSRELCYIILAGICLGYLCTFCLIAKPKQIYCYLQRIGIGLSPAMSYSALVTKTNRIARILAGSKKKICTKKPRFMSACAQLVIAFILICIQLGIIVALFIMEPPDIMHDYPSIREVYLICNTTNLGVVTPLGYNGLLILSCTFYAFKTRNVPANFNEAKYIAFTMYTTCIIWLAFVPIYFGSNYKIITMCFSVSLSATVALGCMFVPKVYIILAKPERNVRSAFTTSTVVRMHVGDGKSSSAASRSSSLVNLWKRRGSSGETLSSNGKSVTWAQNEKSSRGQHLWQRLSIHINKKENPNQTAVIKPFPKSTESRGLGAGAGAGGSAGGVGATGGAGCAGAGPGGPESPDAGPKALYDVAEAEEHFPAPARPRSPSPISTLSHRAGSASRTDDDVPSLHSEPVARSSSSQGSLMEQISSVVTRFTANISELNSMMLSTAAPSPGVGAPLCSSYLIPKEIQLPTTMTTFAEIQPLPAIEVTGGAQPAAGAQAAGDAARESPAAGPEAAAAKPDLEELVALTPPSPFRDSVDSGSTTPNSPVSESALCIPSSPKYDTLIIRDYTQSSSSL
For the compound `COc1cccc([C@H]2OC(=O)N[C@@H]2c2cccc(C#Cc3ccncc3)c2)c1` [Example 51], the pEC50 was above 7.00.
The compound `COc1cccc([C@H]2OC(=O)N[C@@H]2c2cccc(C#Cc3csc(C)n3)c2)c1` [Example 52, (4R,5R)-5-(3-Methoxyphenyl)-4-(3-((2-methylthiazol-4-yl)ethnyl)phenyl)oxazolidin-2-one] had a negative logarithm of the EC50 (pEC50) below 4.52.
Then `COc1cccc([C@H]2OC(=O)N[C@@H]2c2cccc(C#Cc3cccnc3C#N)c2)c1` [Example 53, 3-((3-((4R,5R)-5-(3-Methoxyphenyl)-2-oxooxazolidin-4-yl)phenyl)ethynyl)picolinonitrile], with below 6.00.
`COc1cccc([C@H]2OC(=O)N[C@@H]2c2cccc(C#Cc3cccc(C)c3)c2)c1` [Example 54, (4R,5R)-5-(3-Methoxyphenyl)-4-(3-(m-tolylethnyl)phenyl)oxazolidin-2-one] gave a negative logarithm of the EC50 (pEC50) below 6.00.
Turning to `COc1cccc([C@H]2OC(=O)N[C@@H]2c2cccc(C#Cc3cccc(C#N)c3)c2)c1` [Example 55], the pEC50 was above 7.00.
`COc1cccc([C@H]2OC(=O)N[C@@H]2c2cccc(C#Cc3ccnc(C#N)c3)c2)c1` [Example 56, 4-((3-((4R,5R)-5-(3-Methoxyphenyl)-2-oxooxazolidin-4-yl)phenyl)ethynyl)nicolinonitrile]: the pEC50 is below 6.00.
In turn, `COc1cccc([C@H]2OC(=O)N[C@@H]2c2cccc(C#Cc3ccnc(Cl)c3)c2)c1` [Example 57, (4R,5R)-4-(3-((2-Chloropyridin-4-yl)ethynyl)phenyl)-5-(3-methoxyphenyl)oxazolidin-2-one] showed a pEC50 below 4.52.
On to `COc1cccc([C@H]2OC(=O)N[C@@H]2c2cccc(C#Cc3cccc(N(C)C)c3)c2)c1` [Example 58, (4R,5R)-4-(3-((3-(Dimethylamino)phenyl)ethnyl)phenyl)-5-(3-methoxyphenyl)oxazolidin-2-one], for which the pEC50 was below 4.52.
On to `COc1cccc(C#Cc2cccc([C@H]3NC(=O)O[C@@H]3c3cccc(OC)c3)c2)c1` [Example 59, (4R,5R)-5-(3-Methoxyphenyl)-4-(3-((3-methoxyphenyl)ethynyl)phenyl)oxazolidin-2-one], for which the pEC50 is above 7.00.
In turn, `COc1cccc([C@H]2OC(=O)N[C@@H]2c2cccc(C#Cc3ccnc(C)c3)c2)c1` [Example 60, (4R,5R)-5-(3-Methoxyphenyl)-4-(3-((2-methylpyridin-4-yl)ethnyl)phenyl)oxazolidin-2-one] gave a pEC50 below 6.00.
Regarding `COc1cccc([C@H]2OC(=O)N[C@@H]2c2cccc(C#Cc3cccc(OC)n3)c2)c1` [Example 61], the pEC50 is above 7.00.
`COc1cccc([C@H]2OC(=O)N[C@@H]2c2cccc(C#Cc3ncc[nH]3)c2)c1` [Example 62, (4R,5R)-4-(3-((1H-imidazol-2-yl)ethnyl)phenyl)-5-(3-methoxyphenyl)oxazolidin-2-one] showed a pEC50 below 6.00.
With `COc1cccc([C@H]2OC(=O)N[C@@H]2c2cccc(C#Cc3cnccn3)c2)c1` [Example 63, (4R,5R)-5-(3-Methoxyphenyl)-4-(3-(pyrazin-2-ylethynyl)phenyl)oxazolidin-2-one] the figure was above 7.00.
`COc1cccc([C@H]2OC(=O)N[C@@H]2c2cccc(C#Cc3ncccn3)c2)c1` [Example 64, (4R,5R)-5-(3-Methoxyphenyl)-4-(3-(pyrimidin-2-ylethynyl)phenyl)oxazolidin-2-one] gave a pEC50 below 4.52.
As to `COc1cccc([C@H]2OC(=O)N[C@@H]2c2cccc(C#Cc3cncnc3)c2)c1` [Example 65, (4R,5R)-5-(3-Methoxyphenyl)-4-(3-(pyrimidin-5-ylethynyl)phenyl)oxazolidin-2-one], the pEC50 was 6.00 to 7.00 and 6.86.
In the case of `COc1cccc([C@H]2OC(=O)N[C@@H]2c2cccc(C#Cc3ccc4ccccc4n3)c2)c1` [Example 66, (4R,5R)-5-(3-Methoxyphenyl)-4-(3-(quinolin-2-ylethynyl)phenyl)oxazolidin-2-one], the pEC50 is 6.00 to 7.00.
With `COc1cccc([C@H]2OC(=O)N[C@@H]2c2cccc(C#Cc3cc4ccccc4cn3)c2)c1` [Example 67, (4R,5R)-4-(3-(Isoquinolin-3-ylethynyl)phenyl)-5-(3-methoxyphenyl)oxazolidin-2-one] the figure was below 6.00; with `COc1cccc([C@H]2OC(=O)N[C@@H]2c2cccc(C#Cc3cscn3)c2)c1` [Example 68], above 7.00; with `COc1cccc([C@H]2OC(=O)N[C@@H]2c2cccc(C#Cc3ccc(F)nc3)c2)c1` [Example 69], above 7.00.
`COc1cccc([C@H]2OC(=O)N[C@@H]2c2cccc(C#Cc3ccc(C#N)nc3)c2)c1` [Example 70, 5-((3-((4R,5R)-5-(3-Methoxyphenyl)-2-oxazolidin-4-yl)phenyl)ethynyl)picolinonitrile] showed a pEC50 below 6.00.
With `COc1cccc([C@H]2OC(=O)N[C@@H]2c2cccc(C#Cc3ccc(OC)nc3)c2)c1` [Example 71, (4R,5R)-5-(3-Methoxyphenyl)-4-(3-((6-methoxypyridin-3-yl)ethynyl)phenyl)oxazolidin-2-one], the pEC50 was 6.00 to 7.00 and 6.49.
`COc1cccc([C@H]2OC(=O)N[C@@H]2c2cccc(C#Cc3cccc(F)n3)c2)c1` [Example 72, (4R,5R)-4-(3-((6-Fluoropyridin-2-yl)ethnyl)phenyl)-5-(3-methoxyphenyl)oxazolidin-2-one] had a pEC50 above 7.00.
Take `COc1cccc([C@H]2OC(=O)N[C@@H]2c2cccc(C#Cc3ccnc(F)c3)c2)c1` [Example 73, (4R,5R)-4-(3-((2-Fluoropyridin-4-yl)ethynyl)phenyl)-5-(3-methoxyphenyl)oxazolidin-2-one]: the pEC50 is above 7.00.
On to `COc1cccc([C@H]2OC(=O)N[C@@H]2c2cccc(C#Cc3ccncn3)c2)c1` [Example 74, (4R,5R)-5-(3-Methoxyphenyl)-4-(3-(pyrimidin-4-ylethynyl)phenyl)oxazolidin-2-one], for which the pEC50 was below 4.52.
Compound `COc1cccc([C@H]2OC(=O)N[C@@H]2c2cccc(C#Cc3cccc(C#N)n3)c2)c1` [Example 75, 6-((3-((4R,5R)-5-(3-Methoxyphenyl)-2-oxooxazolidin-4-yl)phenyl)ethynyl)picolinonitrile] showed a pEC50 below 4.52.
`COc1cccc([C@H]2OC(=O)N[C@@H]2c2cccc(C#Cc3cnc4ccccc4c3)c2)c1` [Example 76, (4R,5R)-5-(3-Methoxyphenyl)-4-(3-(quinolin-3-ylethynyl)phenyl)oxazolidin-2-one] showed a pEC50 below 4.52.
For `COc1cccc([C@H]2OC(=O)N[C@@H]2c2cccc(C#Cc3cccc(O)n3)c2)c1` [Example 77, (4R,5R)-4-(3-((6-Hydroxypyridin-2-yl)ethnyl)phenyl)-5-(3-methoxyphenyl)-oxazolidin-2-one], the pEC50 is below 6.00.
With `COc1cccc([C@H]2OC(=O)N[C@@H]2c2cccc(C#Cc3cccnc3OC)c2)c1` [Example 78, (4R,5R)-5-(3-Methoxyphenyl)-4-(3-((2-methoxypyridin-3-yl)ethynyl)phenyl)oxazolidin-2-one] the figure was below 6.00; with `COc1cccc([C@H]2OC(=O)N[C@@H]2c2cccc(C#Cc3cccnc3F)c2)c1` [Example 79, (4R,5R)-4-(3-((2-Fluoropyridin-3-yl)ethynyl)phenyl)-5-(3-methoxyphenyl)oxazolidin-2-one], above 7.00; with `COc1cccc([C@H]2OC(=O)N[C@@H]2c2cccc(C#Cc3cncc(C#N)c3)c2)c1` [Example 80, 5-((3-((4R,5R)-5-(3-Methoxyphenyl)-2-oxooxazolidin-4yl)-phenyl)ethynyl)nicotinonitrile], above 7.00.
Then `COc1cccc([C@H]2OC(=O)N[C@@H]2c2cccc(C#Cc3cncc(F)c3)c2)c1` [Example 81, (4R,5R)-4-(3-((5-Fluoropyridin-3-yl)ethynyl)phenyl)-5-(3-methoxyphenyl)oxazolidin-2-one], with above 7.00.
As to `COc1cccc([C@H]2OC(=O)N[C@@H]2c2cccc(C#Cc3ccc(Cl)nc3)c2)c1` [Example 82, (4R,5R)-4-(3-((6-Chloropyridin-3-yl)ethynyl)phenyl)-5-(3-methoxyphenyl)oxazolidin-2-one], the pEC50 is 6.00 to 7.00.
Then `COc1cccc([C@H]2OC(=O)N[C@@H]2c2cccc(C#Cc3ccc(C)nc3)c2)c1` [Example 83, (4R,5R)-5-(3-Methoxyphenyl)-4-(3-((6-methylpyridin-3-yl)ethynyl)phenyl)oxazolidin-2-one], with 6.00 to 7.00; and `COc1cccc([C@H]2OC(=O)N[C@@H]2c2cccc(C#Cc3cnccc3Cl)c2)c1` [Example 84, (4R,5R)-4-(3-((4-Chloropyridin-3-yl)ethynyl)phenyl)-5-(3-methoxyphenyl)oxazolidin-2-one], with below 6.00; and `COc1cccc([C@H]2OC(=O)N[C@@H]2c2cccc(C#Cc3cccnc3Cl)c2)c1` [Example 85, (4R,5R)-4-(3-((2-Chloropyridin-3-yl)ethynyl)phenyl)-5-(3-methoxyphenyl)oxazolidin-2-one], with below 6.00.
As to `COc1cccc([C@H]2OC(=O)N[C@@H]2c2cccc(C#Cc3cncc(C)c3)c2)c1` [Example 86, (4R,5R)-5-(3-Methoxyphenyl)-4-(3-((5-methylpyridin-3-yl)ethynyl)phenyl)oxazolidin-2-one], the pEC50 was above 7.00.
Compound `COc1cccc([C@H]2OC(=O)N[C@@H]2c2cccc(C#Cc3cccnc3C)c2)c1` [Example 87, (4R,5R)-5-(3-Methoxyphenyl)-4-(3-((2-methylpyridin-3-yl)ethynyl)phenyl)oxazolidin-2-one] showed a pEC50 below 6.00.
The compound `COc1cccc([C@H]2OC(=O)N[C@@H]2c2cccc(C#Cc3cnccc3C)c2)c1` [Example 88, (4R,5R)-5-(3-Methoxyphenyl)-4-(3-((4-methylpyridin-3-yl)ethynyl)phenyl)oxazolidin-2-one] showed a pEC50 below 6.00.
Turning to `COc1cccc([C@H]2OC(=O)N[C@@H]2c2cccc(C#Cc3ccnc(OC)c3)c2)c1` [Example 89, (4R,5R)-5-(3-Methoxyphenyl)-4-(3-((2-methoxypyridin-4-yl)ethnyl)phenyl)oxazolidin-2-one], the pEC50 is below 6.00.
Compound `COc1cccc([C@H]2OC(=O)N[C@@H]2c2cccc(C#Cc3ccccc3C#N)c2)c1` [Example 90, 2-((3-((4R,5R)-5-(3-Methoxyphenyl)-2-oxooxazolidin-4-yl)phenyl)ethynyl)benzonitrile] showed a pEC50 below 6.00.
